Measured values taken from patent publication US20040224313A1, “Polymorphisms in the human cyp2b6 gene and their use in diagnostic and therapeutic applications” (priority 2000, published 2004).
Changes are numbered by the printed parent chain.

What was measured:
CYP2B6 [1] = biological target: T1, CYP2B6 (Homo sapiens, UniProt P20813); conditions: human liver microsomes, homozygous wild-type (Wt) group
T1 sequence (P20813 1-491): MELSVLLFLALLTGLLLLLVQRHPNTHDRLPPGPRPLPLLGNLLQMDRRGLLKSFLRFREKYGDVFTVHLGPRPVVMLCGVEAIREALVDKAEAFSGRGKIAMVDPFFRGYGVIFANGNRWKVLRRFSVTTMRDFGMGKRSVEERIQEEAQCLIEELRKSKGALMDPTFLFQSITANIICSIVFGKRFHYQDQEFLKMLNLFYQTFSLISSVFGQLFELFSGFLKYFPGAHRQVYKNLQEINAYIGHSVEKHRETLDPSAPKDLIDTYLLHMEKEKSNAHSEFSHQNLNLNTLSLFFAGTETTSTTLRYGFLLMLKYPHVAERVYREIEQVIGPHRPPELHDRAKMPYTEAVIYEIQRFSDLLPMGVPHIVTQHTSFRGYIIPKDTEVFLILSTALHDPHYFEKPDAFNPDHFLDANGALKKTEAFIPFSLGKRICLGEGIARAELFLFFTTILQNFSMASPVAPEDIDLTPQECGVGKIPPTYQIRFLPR
Description: (§1) FIG. 4: Analysis of CYP2B6 protein expression (A) and enzymatic function (B). CYP2B6 protein was determined by immunoblotting and the S-mephenytoin N-demethylation to Nirvanol was measured in 92 liver microsome samples. The 5 nonsynonymous CYP2B6 mutations were determined in DNA from the same 92 individuals. Wt indicates the group of 30 individuals with homozygous wild-type genotype; 487 R/C and 487 C/C show the results for individuals heterozygous or homozygous for the exon 9 mutation, respectively. All other mutant genotypes are collectively shown. The average expression and activity of each group is shown as horizontal line. Statistical significance was evaluated by the t-test in comparison to the Wt group: * P<0.05; ** P<0.01.
(§2) The functional significance of the mutations in the CYP2B6 gene (Table 2) was investigated by analyzing expression and enzymatic activity of CYP2B6 in a large human liver bank. A specific monoclonal antibody, MAB-2B6 (Gentest Corp., Woburn, Mass., USA) was used to immunoquantitate microsomal CYP2B6. S-mephenytoin N-demethylation to Nirvanol was measured as a rather CYP2B6-specific pathway. The five nonsynonymous mutations were determined in all samples.

CYP2B6 [2] = biological target: T2, CYP2B6 (Homo sapiens, UniProt P20813, R487C); conditions: human liver microsomes, homozygous carriers of R487C (C1459T)
T2 sequence (P20813 1-491 R487C): T1 sequence (P20813 1-491) with R487C
Description: as §1, §2

CYP2B6 [3] = conditions: human liver microsomes, heterozygous carriers of R487C (C1459T)
Description: as §1, §2

**Q.** How did the “mean enzyme activity, S-mephenytoin N-demethylation” value (“mean enzyme activity” for short) (CYP2B6 [1]) turn out when `CC[C@@]1(c2ccccc2)NC(=O)N(C)C1=O` [S-mephenytoin] was run?
**A.** 49.2±49.4 pmoles of nirvanol formed/min*mg

**Q.** And the “mean enzyme activity” value (CYP2B6 [2])?
**A.** 22.2±8.4 pmoles of nirvanol formed/min*mg

**Q.** And the “mean enzyme activity” value (CYP2B6 [3])?
**A.** 25.9±15.2 pmoles of nirvanol formed/min*mg
